Data: US20250041313A1, “COMBINATION THERAPY FOR TREATMENT OF CANCER” (CITY OF HOPE, priority 2023, published 2025)

Tests used:
SBC3 cells [1] = assay: Imaris quantification of mitochondrial and nuclear areas/morphology; format: cell-based, human; conditions: SBC3
Experimental: (§1) Imaris 9.9.0 (Bitplane, AG), with Surfaces and Cells modules, was used to generate mitochondria morphology data from 2D images and 2D Z-stack subsets. Surfaces were used to evaluate individual mitochondria from cell monolayers and spheroids. Detection parameters were optimized for visible mitochondria and nuclei in each group with varying signal intensities. Roundness ratios were calculated from Surface generated Bounding Box 00 Length measurements. Object lengths less than 0.1 μm were excluded, and lengths greater than 1.26 μm were separately analyzed as clusters. Thresholds were uniformly applied to roundness ratios to categorize mitochondria morphology as elongated (<0.599), intermediate (≥0.600-0.649), or round/fragmentated (≥0.650). The percentage of cells from total number is based on a ratio. A perfectly round object has a ratio of 1.0. The Cells module was used to detect and quantify mitochondria and nucleus area from cell monolayers. Identical parameters were applied to all groups with cell boundary detection based on mitochondria signals. Imaris includes nuclei in cytoplasm measurements, so mitochondrial area is calculated by subtracting nucleus area from cell cytoplasm area. Abnormal nuclei were excluded (<100 μm^2, >750 μm^2).
MitoTracker Red and Hoechst 33342 were used to validate Teri and Leflu effects on intact mitochondrial morphology in SBC3 and SBC5 cells. M1 and MDIVI1 compounds were used as positive controls because they are promoters of mitochondrial fusion. Mitochondrial and nuclear areas were quantified by analyzing object surface area and intensity in Imaris 9.9.0.

SBC5 cells = assay: as above; format: cell-based, human; conditions: SBC5, 10 μM
Experimental: as §1
Next, we performed the same analysis with SBC5 cells. […] Mitochondrial elongation in SBC3 cells treated with Teri and Leflu is visible and correlates with Imaris Surface results. […] Although mitochondrial areas of SBC5 cells were not affected by Teri and Leflu treatments, elongations of individual mitochondria were detected with each treatment (FIG. 2I). […] Therefore, it is important to investigate the effects of Teri and Leflu on mitochondrial morphology and cell survival in combination with chemotherapeutic drugs.

SCLC = conditions: relapsed / second-line SCLC patients; cited from earlier work
SBC5 xenograft = assay: SBC5 mouse xenograft, Carbo/Leflu study; format: in vivo; conditions: Carbo 50 mg/kg, Leflu 7.5 mg/kg, i.p. twice a week
Experimental: Athymic nude nu/nu mice were obtained from Charles River, Wilmington, MA, and were acclimated for a week before beginning the experiment. All animal experiments were carried out in accordance with a protocol approved by the Institutional Animal Care and Use Committee COH (IACUC #16004). For treatments, mice were divided into 4 groups with five mice per group and subcutaneously injected into one flank with 2×10^6 SBC3 or SBC5 cells suspensions in 100 μl of PBS. Treatment started on the 14th day when tumors became palpable. Two in vivo studies were done in this project. SBC3 and SBC 5 xenograft with i) vehicle control, ii) […] 50 mg/kg, iii) Leflu 7.5 mg/kg, and iv) […]/Leflu. SBC3 with i) vehicle control, ii) Lur 0.5 mg/kg, iii) Leflu 3.8 mg/kg, and iv) Lur/Leflu. Treatments were given to mice via i.p. twice a week for 6 weeks. Animals were examined daily for signs of tumor growth. Tumors were measured in two dimensions using calipers and body weights were recorded. Animals were photographed on days 1, 5, 10, 15, 20, 25, 30, 35, and 40 after treatment. Tumors were removed on day 40 and photographed. At the end of the study, the mice were euthanized by CO2 asphyxiation followed by cervical dislocation. The tumor weights were compared between groups using an unpaired Student's t-test. […] Mean immunofluorescence intensities were calculated with ZEN 2.3 Lite software.

SBC3 xenograft = assay: SBC3 mouse xenograft, Carbo/Leflu study; format: in vivo
Experimental: Athymic nude nu/nu mice were obtained from Charles River, Wilmington, MA, and were acclimated for a week before beginning the experiment. All animal experiments were carried out in accordance with a protocol approved by the Institutional Animal Care and Use Committee COH (IACUC #16004). For treatments, mice were divided into 4 groups with five mice per group and subcutaneously injected into one flank with 2×10^6 SBC3 or SBC5 cells suspensions in 100 μl of PBS. Treatment started on the 14th day when tumors became palpable. Two in vivo studies were done in this project. SBC3 and SBC 5 xenograft with i) vehicle control, ii) […] 50 mg/kg, iii) Leflu 7.5 mg/kg, and iv) […]/Leflu. SBC3 with i) vehicle control, ii) Lur 0.5 mg/kg, iii) Leflu 3.8 mg/kg, and iv) Lur/Leflu. Treatments were given to mice via i.p. twice a week for 6 weeks. Animals were examined daily for signs of tumor growth. Tumors were measured in two dimensions using calipers and body weights were recorded. Animals were photographed on days 1, 5, 10, 15, 20, 25, 30, 35, and 40 after treatment. Tumors were removed on day 40 and photographed. At the end of the study, the mice were euthanized by CO2 asphyxiation followed by cervical dislocation. The tumor weights were compared between groups using an unpaired Student's t-test. A portion of the tumor was fixed in 10% buffered formaldehyde solution and paraffin-embedded for immuno-staining. FFPE tumor sections were stained with pDRP Ser^616 antibody. Tumor sections were deparaffinized and rehydrated, followed by heat-mediated antigen retrieval (pH 6, Dako). After permeabilization and blocking, tumor sections were stained with pDRP1 Ser^616 antibody overnight, washed and incubated with Alexa 488 secondary antibody for one hour, mounted and observed on an LSM 880 with a 10×/0.45 NA objective (Carl Zeiss). Immunofluorescent confocal images were acquired for each treatment (magnification:100×). Mean immunofluorescence intensities were calculated with ZEN 2.3 Lite software.

SBC3 cells [2] = assay: CCK-8 cell viability/cytotoxicity assay, 72 h; format: cell-based, human; conditions: SBC3, CCK-8 72 h, fixed concentrations of Teri and Carbo; read-out: IC50, single treatment and combination treatment
Experimental: The expression levels of DRP1 and DHODH in SCLC lines were compared with non-malignant BEAS 2B cells. […] Previous studies have shown that Leflu and its active metabolite Teri regulate mitochondrial morphology (9,10,26). […] In vitro cytotoxicity effect of Teri and Leflu was tested in a panel of SCLC cell lines. Ten SCLC cell lines were treated with increasing concentrations of each drug for 72 h.
Isobologram and CI50 values were calculated using the Chou-Talalay method and IC50 to find synergism (FIG. 3B).

SBC3 cells [3] = assay: LC-MS of nucleotides, nucleosides and nucleobases in cell pellets; format: cell-based, human; parameters: unit not given here
Experimental: These studies were performed by Creative Proteomics in their facility in Shirley, NY. Each sample was placed into 250 μL of 80% methanol. Tissue samples were weighed in 2-mL Eppendorf tubes, and 80% methanol was added at 10 μL per mg of raw tissue. The tissue and cell samples were then homogenized on a MM 400 mill mixer with the aid of two 4-mm metal beads at a shaking frequency of 30 Hz for 2 min and the homogenization step was repeated twice. The samples were placed at −20° C. for 1 h and then centrifuged at 21,000×g for 10 min. The clear supernatants were collected for LC-MS quantitation. Protein content was measured from protein pellets by Bradford protein assays and used to normalize metabolite concentrations from cell pellets. A stock solution contained standard substances of all the targeted nucleotides, nucleosides, and nucleobases were prepared at 200 nmol/mL for each in an internal standard solution of ^13C- and/or ^15N-labeling AMP, ATP, GMP, GTP, UMP, UTP, adenine and adenosine. This solution was serially diluted with the same solution to prepare 10-point calibration solutions in a concentration range of 0.0001 to 50 μM. 10 μL of the supernatant of each sample was mixed with 90 μL of the internal standard solution. 10 μL aliquots of the sample solutions and the standard solutions were injected into a C18 LC column (2.1*150 mm, 1.9 μm) to run UPLC-MRM/MS on a Waters Acquity UPLC system coupled to a Sciex QTRAP 6500 Plus mass spectrometer operated in the negative-ion mode for detection of nucleotides. The mobile phase was a triethylamine buffer (A) and acetonitrile/methanol (1:1) (B) for binary gradient elution (5% to 60% B in 25 min), at 0.25 mL/min and 55° C. For quantitation of nucleosides and nucleobases, 10-μL aliquots of the sample solutions and the standard solutions were injected onto a polar reversed-phase C18 column (2.1*100 mm, 1.6 μm) to run UPLC-MRM/MS on a Waters Acquity UPLC system coupled to a Sciex QTRAP 6500 Plus mass spectrometer operated in the positive-ion mode. The mobile phase was 0.1% formic acid-ammonium formate buffer (A) and methanol (B) for binary gradient elution (0% to 40% B in 15 min), at 0.25 mL/min and 30° C. Concentrations of the detected nucleotides, nucleosides or nucleobases in the UPLC-MRM/MS runs were calculated with internal-standard calibration by interpolating the constructed linear-regression curves of individual compounds, with the analyte-to-internal standard peak area ratios measured from the sample solutions.
The effect of treatment on the concentration of purines and pyrimidines for both cell lines and xenograft were modelled as concentration=Treatment1+Treatment2+Treatment1*Treatment2. For cell lines, Treatment 1-2 were […] and Teri, while for the xenografts—Lur and Leflu respectively. The significance of the effects was ascertained by p-values associated with the coefficients of the model (20). The p-values were FDR corrected to account for repeated testing. The coefficient for the interaction term (Treatment1*Treatment2) and its associated p-value correspond to the synergistic effect of the two treatments. Coefficients and p-values for the rest of the terms indicate significance of each treatment alone. Statistical analysis was conducted in R.

In the case of CC(=NNc1c(Cl)cc(Cl)cc1Cl)c1cc(Cl)ccc1O [M1], the “Mitochondrial elongation (Airyscan imaging)” value (SBC3 cells [1]) is reported as “moderately affected” and the “effect on mitochondrial or nuclear areas” value (SBC3 cells [1]) is reported as “did not affect”.
In the case of COc1cc(-n2c(=S)[nH]c3ccccc3c2=O)c(Cl)cc1Cl [MDIVI1], the Mitochondrial area (SBC5 cells) is reported as 419.9±13.26 μm^2, the “Mitochondrial elongation (Airyscan imaging)” value (SBC3 cells [1]) is reported as “moderately affected” and the “effect on mitochondrial or nuclear areas” value (SBC3 cells [1]) is reported as “did not affect”.
For CC[C@@]1(O)C(=O)OCc2c1cc1n(c2=O)Cc2cc3c(CN(C)C)c(O)ccc3nc2-1 [topotecan, Topotecan], the ORR (SCLC) is listed as 24% and the “median PFS” value (SCLC) is listed as 3.4 months.
With carboplatin the “final tumor weight (day 40)” value (SBC5 xenograft) was 0.64 ± 0.10 g, the “pDRP1 Ser616 immunofluorescence in tumor sections” value (SBC3 xenograft; SBC3 xenograft FFPE tumors) was “significant decrease” and the “reduction in tumor size/weight” value (SBC3 xenograft; SBC3 xenograft, day 40, vs control) was roughly 58%. For the same compound, the “average final tumor weight at end of study (day 40)” value (SBC3 xenograft; SBC3 xenograft, Carbo 50 mg/kg, Leflu 7.5 mg/kg, i.p. twice a week) was 0.75 ± 0.10 g, the IC50 (SBC3 cells [2]) was 4.12 µM and the ATP concentration (SBC3 cells [3]) was 27.92±0.55. It also gave a UTP concentration (SBC3 cells [3]) of 9.29±0.4, an XMP concentration (SBC3 cells [3]) of 0.35±0.18 and a dATP concentration (SBC3 cells [3]) of 0.17±0.002. The dCTP concentration (SBC3 cells [3]) was 0.06±0.004, the dm5UTP concentration (SBC3 cells [3]) was 0.44±0.001 and the xanthosine concentration (SBC3 cells [3]) was 0.094±0.045.
